Source: patent publication US11628164B2, “Composition containing salsolinol for treating liver cancer” (SUNGSHIN WOMEN'S UNIVERSITY R&DB FOUNDATION, priority 2020, dated 2023)

Key:
[1] = tested on: AKT, p-AKT, Annexin A2, PCNA in liver tissue; assay: Western blotting of liver tissue, DEN-induced liver cancer mouse model; format: in vivo, C57BL/6 mouse; details: DEN+SAL liver tissue
Experimental: 5×10^5 cells of Human-derived liver cancer cell lines SK-Hep1 and SNU387 are cultured in a 60 mm culture vessel, the cells are lysed, and proteins are separated through electrophoresis. And after that, western blotting analysis is performed by using a specific antibody. After treatment of the SK-Hep1 and the SNU387 with the salsolinol at different times and concentrations, the cells are washed with PBS, and the cells are scraped off with a scraper. The cells are lysed in a lysis buffer for 1 hour, and after that, centrifuge separation is performed at 13,000 rpm for 15 minutes at 4° C., and only the supernatant is extracted. 20 μg of protein contained in the supernatant is electrophoresed on SDS-polyacrylamide gel, and after that, transferred to a PVDF membrane for 2 hours. The sample reacts with antibodies pSTAT3(#9145), STAT3(#9132), PCNA(#2586), 15-PGDH(cayman No. 160615), p53(sc-126), p53(sc-99), pAKT(#9271), AKT(#9272), Annexin A2(#8235), and GAPDH(sc-32233). The protein is detected by using an enhanced chemiluminascence (ECL) detection solution.
The salsolinol (200 mg/kg) is administered for 6 months through intraperitoneal injection three times per week from the time when the DEN-induced liver cancer mouse model (male) became 7 weeks of age. After the mouse is sacrificed, the experiment is performed.
The normal mouse, the DEN-induced liver cancer mouse model, and the DEN-induced liver cancer mouse model administered with the salsolinol are sacrificed, the livers are excised, the liver tissues are crushed, and the proteins are extracted. After separating the extracted protein through electrophoresis, the expression levels of tumor-related genes AKT, p-AKT, Annexin A2, and PCNA and the changes in the expression levels are analyzed by using a Western blotting method (refer to FIG. 9).

SK-Hep1 = assay: MTT cell viability, male-derived liver cancer cell line; format: cell-based, human; details: SK-Hep1, 5-100 μM salsolinol
Experimental: (§1) SK-Hep1 and SNU387, which are human-derived hepatoma cell lines, are distributed from Korea Cell Line Bank. […] The SK-Hep1 and the SNU387 are cultured in a medium including a minimum essential medium (Dulbecco Modified Eagle Medium, DMEM) (Gibco BRL grand Island, N.Y., USA) and in a medium containing 10% FBS (HyClone Lab, Inc, Logan, Utah, USA), 100 U/ml penicillin. (penicillin) and 100 μg/ml streptomycin (Gibco, Grand Island, N.Y., USA) at 37° C. in an atmosphere of 5% CO2. The cultured liver cancer cell lines (SK-HEP1 and SNU387) are dispensed into each well of a 48-well plate so as to have a concentration of 5×10^4 cells. After culturing for 24 hours, the sample is treated with the salsolinol for 24 hours, 48 hours, and 72 hours so as to have a concentration of 5 μM, 15 μM, 25 μM, 50 μM, or 100 μM. After that, 250 μl of 0.5 mg/ml MTT solution (Sigma, St Louis, Mo., US) is added to each well and reacted at 37° C. for 1 hour. After removing the solution, MTT-formazione is lysed and washed with 250 μl of DMSO (Dimethylsulfoxide, Duksan, Gyeonggi, Korea), and then, the absorbance at 540 nm is measured by using a SpectraMax 190 microplate plate reader (Molecular Devices, LCC. San Jose, Calif.). […]

[2] = tested on: normal hepatocytes (NCTC1469); details: NCTC1469, from KR10-2019-0129765; cited from earlier work
SNU387 = assay: MTT cell viability, female-derived liver cancer cell line; format: cell-based, human; details: SNU387, 5-100 μM salsolinol, 24, 48, 72 hours
Experimental: as §1

SMILES: CC1NCCc2cc(O)c(O)cc21 (centres unmarked) [salsolinol, 6,7-dihydroxy-1-methyl-1,2,3,4-tetrahydroisoquinoline]
- Annexin A2 expression level [1]: decreased
- PCNA expression level [1]: decreased to the level of the normal mouse
- degree of phosphorylation of AKT (p-AKT) [1]: decreased to the level of the normal mouse
- cell viability (MTT) (SK-Hep1; 48 and 72 hours): degree of decrease in cell viability according to the treatment concentration of salsolinol increases
- cell viability (MTT) (SK-Hep1; 24 hours): cell viability decreases as the concentration of salsolinol increases
- PARP-cleavage / apoptosis [2]: PARP-cleavage is induced to induce apoptosis
- fibrosis-related genes and active oxygen species [2]: increases fibrosis-related genes and active oxygen species
- cell viability (MTT) (SNU387): cell viability is not decreased
